{"source": "BigSolDB 2.1"}
{"smiles": "CNC(=O)c1cc(Oc2ccc(NC(=O)Nc3ccc(Cl)c(C(F)(F)F)c3)cc2)ccn1", "values": [{"measurement": "solubility (mole fraction)", "setting": "in 2-butanone, 273.15 K", "value": 0.00666}, {"measurement": "solubility (mole fraction)", "setting": "in 2-butanone, 278.15 K", "value": 0.00725}, {"measurement": "solubility (mole fraction)", "setting": "in 2-butanone, 283.15 K", "value": 0.0079}, {"measurement": "solubility (mole fraction)", "setting": "in 2-butanone, 288.15 K", "value": 0.00856}, {"measurement": "solubility (mole fraction)", "setting": "in 2-butanone, 293.15 K", "value": 0.00929}, {"measurement": "solubility (mole fraction)", "setting": "in 2-butanone, 298.15 K", "value": 0.0101}, {"measurement": "solubility (mole fraction)", "setting": "in 2-butanone, 303.15 K", "value": 0.0111}, {"measurement": "solubility (mole fraction)", "setting": "in 2-butanone, 308.15 K", "value": 0.0122}, {"measurement": "solubility (mole fraction)", "setting": "in 2-butanone, 313.15 K", "value": 0.0133}, {"measurement": "solubility (mole fraction)", "setting": "in acetone, 273.15 K", "value": 0.00227}, {"measurement": "solubility (mole fraction)", "setting": "in acetone, 278.15 K", "value": 0.00259}, {"measurement": "solubility (mole fraction)", "setting": "in acetone, 283.15 K", "value": 0.00293}, {"measurement": "solubility (mole fraction)", "setting": "in acetone, 288.15 K", "value": 0.00329}, {"measurement": "solubility (mole fraction)", "setting": "in acetone, 293.15 K", "value": 0.00369}, {"measurement": "solubility (mole fraction)", "setting": "in acetone, 298.15 K", "value": 0.00405}, {"measurement": "solubility (mole fraction)", "setting": "in acetone, 303.15 K", "value": 0.00448}, {"measurement": "solubility (mole fraction)", "setting": "in acetone, 308.15 K", "value": 0.00488}, {"measurement": "solubility (mole fraction)", "setting": "in acetone, 313.15 K", "value": 0.00558}, {"measurement": "solubility (mole fraction)", "setting": "in acetonitrile, 273.15 K", "value": 0.000162}, {"measurement": "solubility (mole fraction)", "setting": "in acetonitrile, 278.15 K", "value": 0.000194}, {"measurement": "solubility (mole fraction)", "setting": "in acetonitrile, 283.15 K", "value": 0.000239}, {"measurement": "solubility (mole fraction)", "setting": "in acetonitrile, 288.15 K", "value": 0.000282}, {"measurement": "solubility (mole fraction)", "setting": "in acetonitrile, 293.15 K", "value": 0.000334}, {"measurement": "solubility (mole fraction)", "setting": "in acetonitrile, 298.15 K", "value": 0.000396}, {"measurement": "solubility (mole fraction)", "setting": "in acetonitrile, 303.15 K", "value": 0.000476}, {"measurement": "solubility (mole fraction)", "setting": "in acetonitrile, 308.15 K", "value": 0.000571}, {"measurement": "solubility (mole fraction)", "setting": "in acetonitrile, 313.15 K", "value": 0.000678}, {"measurement": "solubility (mole fraction)", "setting": "in cyclohexanone, 273.15 K", "value": 0.0114}, {"measurement": "solubility (mole fraction)", "setting": "in cyclohexanone, 278.15 K", "value": 0.0124}, {"measurement": "solubility (mole fraction)", "setting": "in cyclohexanone, 283.15 K", "value": 0.0138}, {"measurement": "solubility (mole fraction)", "setting": "in cyclohexanone, 288.15 K", "value": 0.0153}, {"measurement": "solubility (mole fraction)", "setting": "in cyclohexanone, 293.15 K", "value": 0.0169}, {"measurement": "solubility (mole fraction)", "setting": "in cyclohexanone, 298.15 K", "value": 0.0189}, {"measurement": "solubility (mole fraction)", "setting": "in cyclohexanone, 303.15 K", "value": 0.0209}, {"measurement": "solubility (mole fraction)", "setting": "in cyclohexanone, 308.15 K", "value": 0.0229}, {"measurement": "solubility (mole fraction)", "setting": "in cyclohexanone, 313.15 K", "value": 0.0251}, {"measurement": "solubility (mole fraction)", "setting": "in ethanol, 273.15 K", "value": 0.000645}, {"measurement": "solubility (mole fraction)", "setting": "in ethanol, 278.15 K", "value": 0.000727}, {"measurement": "solubility (mole fraction)", "setting": "in ethanol, 283.15 K", "value": 0.000817}, {"measurement": "solubility (mole fraction)", "setting": "in ethanol, 288.15 K", "value": 0.000922}, {"measurement": "solubility (mole fraction)", "setting": "in ethanol, 293.15 K", "value": 0.00103}, {"measurement": "solubility (mole fraction)", "setting": "in ethanol, 298.15 K", "value": 0.00114}, {"measurement": "solubility (mole fraction)", "setting": "in ethanol, 303.15 K", "value": 0.00127}, {"measurement": "solubility (mole fraction)", "setting": "in ethanol, 308.15 K", "value": 0.0014}, {"measurement": "solubility (mole fraction)", "setting": "in ethanol, 313.15 K", "value": 0.00155}, {"measurement": "solubility (mole fraction)", "setting": "in ethyl acetate, 273.15 K", "value": 0.000835}, {"measurement": "solubility (mole fraction)", "setting": "in ethyl acetate, 278.15 K", "value": 0.001}, {"measurement": "solubility (mole fraction)", "setting": "in ethyl acetate, 283.15 K", "value": 0.00119}, {"measurement": "solubility (mole fraction)", "setting": "in ethyl acetate, 288.15 K", "value": 0.00142}, {"measurement": "solubility (mole fraction)", "setting": "in ethyl acetate, 293.15 K", "value": 0.00165}, {"measurement": "solubility (mole fraction)", "setting": "in ethyl acetate, 298.15 K", "value": 0.00192}, {"measurement": "solubility (mole fraction)", "setting": "in ethyl acetate, 303.15 K", "value": 0.00222}, {"measurement": "solubility (mole fraction)", "setting": "in ethyl acetate, 308.15 K", "value": 0.00255}, {"measurement": "solubility (mole fraction)", "setting": "in ethyl acetate, 313.15 K", "value": 0.00293}, {"measurement": "solubility (mole fraction)", "setting": "in isobutanol, 273.15 K", "value": 0.000433}, {"measurement": "solubility (mole fraction)", "setting": "in isobutanol, 278.15 K", "value": 0.000498}, {"measurement": "solubility (mole fraction)", "setting": "in isobutanol, 283.15 K", "value": 0.00058}, {"measurement": "solubility (mole fraction)", "setting": "in isobutanol, 288.15 K", "value": 0.000661}, {"measurement": "solubility (mole fraction)", "setting": "in isobutanol, 293.15 K", "value": 0.000755}, {"measurement": "solubility (mole fraction)", "setting": "in isobutanol, 298.15 K", "value": 0.000854}, {"measurement": "solubility (mole fraction)", "setting": "in isobutanol, 303.15 K", "value": 0.000972}, {"measurement": "solubility (mole fraction)", "setting": "in isobutanol, 308.15 K", "value": 0.0011}, {"measurement": "solubility (mole fraction)", "setting": "in isobutanol, 313.15 K", "value": 0.00126}, {"measurement": "solubility (mole fraction)", "setting": "in isopropanol, 273.15 K", "value": 0.000498}, {"measurement": "solubility (mole fraction)", "setting": "in isopropanol, 278.15 K", "value": 0.000573}, {"measurement": "solubility (mole fraction)", "setting": "in isopropanol, 283.15 K", "value": 0.000665}, {"measurement": "solubility (mole fraction)", "setting": "in isopropanol, 288.15 K", "value": 0.000761}, {"measurement": "solubility (mole fraction)", "setting": "in isopropanol, 293.15 K", "value": 0.000866}, {"measurement": "solubility (mole fraction)", "setting": "in isopropanol, 298.15 K", "value": 0.000975}, {"measurement": "solubility (mole fraction)", "setting": "in isopropanol, 303.15 K", "value": 0.0011}, {"measurement": "solubility (mole fraction)", "setting": "in isopropanol, 308.15 K", "value": 0.00123}, {"measurement": "solubility (mole fraction)", "setting": "in isopropanol, 313.15 K", "value": 0.00138}, {"measurement": "solubility (mole fraction)", "setting": "in methanol, 273.15 K", "value": 0.000385}, {"measurement": "solubility (mole fraction)", "setting": "in methanol, 278.15 K", "value": 0.000422}, {"measurement": "solubility (mole fraction)", "setting": "in methanol, 283.15 K", "value": 0.000459}, {"measurement": "solubility (mole fraction)", "setting": "in methanol, 288.15 K", "value": 0.000509}, {"measurement": "solubility (mole fraction)", "setting": "in methanol, 293.15 K", "value": 0.000564}, {"measurement": "solubility (mole fraction)", "setting": "in methanol, 298.15 K", "value": 0.000628}, {"measurement": "solubility (mole fraction)", "setting": "in methanol, 303.15 K", "value": 0.000701}, {"measurement": "solubility (mole fraction)", "setting": "in methanol, 308.15 K", "value": 0.000769}, {"measurement": "solubility (mole fraction)", "setting": "in methanol, 313.15 K", "value": 0.000848}, {"measurement": "solubility (mole fraction)", "setting": "in n-butanol, 273.15 K", "value": 0.000726}, {"measurement": "solubility (mole fraction)", "setting": "in n-butanol, 278.15 K", "value": 0.000817}, {"measurement": "solubility (mole fraction)", "setting": "in n-butanol, 283.15 K", "value": 0.000919}, {"measurement": "solubility (mole fraction)", "setting": "in n-butanol, 288.15 K", "value": 0.00103}, {"measurement": "solubility (mole fraction)", "setting": "in n-butanol, 293.15 K", "value": 0.00116}, {"measurement": "solubility (mole fraction)", "setting": "in n-butanol, 298.15 K", "value": 0.0013}, {"measurement": "solubility (mole fraction)", "setting": "in n-butanol, 303.15 K", "value": 0.00145}, {"measurement": "solubility (mole fraction)", "setting": "in n-butanol, 308.15 K", "value": 0.00162}, {"measurement": "solubility (mole fraction)", "setting": "in n-butanol, 313.15 K", "value": 0.00182}, {"measurement": "solubility (mole fraction)", "setting": "in n-propanol, 273.15 K", "value": 0.000756}, {"measurement": "solubility (mole fraction)", "setting": "in n-propanol, 278.15 K", "value": 0.00086}, {"measurement": "solubility (mole fraction)", "setting": "in n-propanol, 283.15 K", "value": 0.000978}, {"measurement": "solubility (mole fraction)", "setting": "in n-propanol, 288.15 K", "value": 0.00111}, {"measurement": "solubility (mole fraction)", "setting": "in n-propanol, 293.15 K", "value": 0.00126}, {"measurement": "solubility (mole fraction)", "setting": "in n-propanol, 298.15 K", "value": 0.00143}, {"measurement": "solubility (mole fraction)", "setting": "in n-propanol, 303.15 K", "value": 0.00162}, {"measurement": "solubility (mole fraction)", "setting": "in n-propanol, 308.15 K", "value": 0.00183}, {"measurement": "solubility (mole fraction)", "setting": "in n-propanol, 313.15 K", "value": 0.00207}, {"measurement": "solubility (mole fraction)", "setting": "in toluene, 273.15 K", "value": 0.00197}, {"measurement": "solubility (mole fraction)", "setting": "in toluene, 278.15 K", "value": 0.00218}, {"measurement": "solubility (mole fraction)", "setting": "in toluene, 283.15 K", "value": 0.00234}, {"measurement": "solubility (mole fraction)", "setting": "in toluene, 288.15 K", "value": 0.00255}, {"measurement": "solubility (mole fraction)", "setting": "in toluene, 293.15 K", "value": 0.00282}, {"measurement": "solubility (mole fraction)", "setting": "in toluene, 298.15 K", "value": 0.00313}, {"measurement": "solubility (mole fraction)", "setting": "in toluene, 303.15 K", "value": 0.00352}, {"measurement": "solubility (mole fraction)", "setting": "in toluene, 308.15 K", "value": 0.00382}, {"measurement": "solubility (mole fraction)", "setting": "in toluene, 313.15 K", "value": 0.00428}]}
